What was measured:
[1] = LD50 predicted from in-vitro IC50 by regression (Speilmann method); conditions: for LD50 estimated from IC50: Log (LD50)=0.506×(log IC50)+0.475, body weight; for LD50 (mM): score 1/0
Description: Lactate dehydrogenase (LDH) assay: To detect direct GA-induced cell lysis we performed LDH release assays (Roche Molecular Diagnostics). […] Approximately 5×10^4 U373 cells/well were cultured in 96-well plates in the presence of increasing concentrations of individual GA or control peptide from 0.5 μM to 500 μM. Cells treated with 2% triton-X 100 (Sigma Aldrich, St. Louis, Mo.) for 10 minutes served as positive control. Untreated cells served as controls for spontaneous LDH-release. Specific LDH-release was calculated according to the following formula: LDH-release %=100*(GA or control peptide treated cells—untreated cells)/(positive control-untreated cells). The IC50 values were extrapolated by logarithmic estimation. The LD50 in mg/kg was predicted using the formula, Log (LD50)=0.506×(log IC50)+0.475. […]

[2] = tested on: primary human fetal brain cells (HFB); assay: CTG viability of primary human fetal brain cultures with or without Aβ1-42; type: cell-based; conditions: for viability of Aβ1-42 exposed HFB cells: Aβ1-42 10 μM
Description: Functional assays in human primary mixed brain cultures (HFB). Primary cultures of mixed HFB were prepared from the brain parenchyma of aborted fetuses (80-100 days gestational age). The tissues were obtained from the Birth Defects Research Laboratory (BDRL) at the University of Washington, Seattle with approval from the Indiana University Institutional Review Board (IRB). The IRB determined that the use of anonymous human biological materials received from this depository is not considered as human subjects research (supplementary document, s1). The NIH funded BDRL tissue distribution program operates separately in full compliance with all relevant state and federal laws and regulations with donors providing written informed consent.
Fetal brain materials (10-20 g) were shipped overnight in chilled Hibernate-E medium (Invitrogen) supplemented with B27 (Invitrogen), GlutaMAX (Invitrogen) and antibiotic-antimycotic solution (Cellgro). HFB were prepared and cultured as described. Briefly, cells were cultured in Neurobasal medium (Invitrogen) without phenol red supplemented with 1×B27, […] GlutaMAX, 1×antibiotic cocktail, 5 ng/mL recombinant fibroblast growth factor 2 (bFGF) (Invitrogen), and 2 μL/mL Normocin (InVivoGen, San Diego, Calif., USA). Cells were counted and seeded onto poly-D-lysine (Sigma-Aldrich) coated 24-well plates (Corning, Lowell, Mass., USA) at 1.5×10^5 cells per well and maintained at 37° C. in a 5% CO2 incubator. Half media changes were performed every 4th day of culture and morphology was monitored via phase contrast microscopy. Culture medium was removed from cells on day 17 (DIV17) and replaced with Neurobasal medium with B27. […] Cells and conditioned media were harvested and stored for further analysis. Relative ATP concentration was measured using the CTG kit (Promega). Data is presented as ΔRLU=RLU of Aβ1-42 exposed cells-RLU unexposed cells. Conditioned media collected were assessed for specific cytokines using the OptEIA kits (BD Biosciences). Nuclear and cytoplasmic fractions were extracted using the CelLytic™ NuCLEAR™ Extraction Kit (Sigma) following manufacturer's protocol. Five microgram of nuclear extracts was incubated in a 96-well plate coated with oligonucleotides containing the NF-κβ consensus nucleotide sequence (5′-[…]-3′) (SEQ ID NO: 30). The activated NF-κβ bound to DNA was detected by anti-p65 antibody followed by a peroxidase coupled secondary antibody and substrate using the TransAM kit protocol (Active Motif). Nuclear extracts of Raji cells was used as the positive control.
Select PGA protects against Aβ1-42 induced toxicity, prevents p65 activation and cytokine response in human fetal brain (HFB) cells. […] Viability in terms of relative luminescent Units (RLU) was quantified using a Glowmax luminometer (Promega, Wis.). Data are presented as ARLU=RLU of Aβ1-42 exposed cells-RLU of unexposed cells. […] The mean RLU of vehicle treated HFB varied between 7352.75+/−1265.2 and 16157.5+/−4950. Average RLU of cultures exposed to Aβ1-42 varied between 6067.25+/−903.05 and 11574.25+/−4139.3 in different experiments. […] The culture supernatants were assessed for cytokines by ELISA (R&D Systems, Minn.). […] Primary HFB cultured similarly and harvested at the end of 4 hours was assessed for nuclear p65 using TransAM kit for NF-κB p65 (Active Motif, Calif.).

[3] = tested on: LPS induced neuroinflammation; assay: LPS induced neuroinflammation: real time PCR of brain tissue; type: in vivo, mouse; conditions: 25 mg/kg i.v. alternate days, day 7
Description: Animals and lipopolysaccharide induced neuroinflammation: Male C57/6J mice weighing 32 to 37 grams were housed five per cage at a temperature of 22±2° C. with 12 hour light/12 hour dark cycles with free access to laboratory food and water. Lipopolysaccharides (LPS) from Escherichia coli 026:B6, =10,000 EU/mg, purified by phenol extraction was purchased from Sigma (Sigma Aldrich, Mo., USA). The mice were randomly divided into seven groups: LPS, LPS+GA-1 or GA-2 or CP-1 or CP-2 or CP-3 or TAT. The LPS was administered intraperitoneally at […] in 100 μl of sterile saline followed by corn oil in the morning daily for six days. The GA or CP was administered intravenously at 25 mg/kg in 100 μl of sterile saline on alternate days. Additional control group included mice receiving saline alone. All animals were sacrificed on day 7.
Real time polymerase chain reaction. Total cellular RNA was isolated from each brain tissue using Qiagen kit (Invitrogen, Carlsbad, Calif.) following manufacturer's protocol and reverse transcribed using iScript cDNA synthesis kit (Biorad, Calif.). Equal amount of cDNA measured by the Nanodrop (ThermoFisher Scientific, Waltham, USA) was used for amplification of IL-1β, IL-12, CD14, BclXL and Bcl2. Real time PCR was performed using SYBR green/ROX qPCR master mix (SA Biosciences, Frederick, Md.) on the ABI Prism 7000 sequence detection system (Applied Biosystem, Foster City, Calif., USA). Each reaction contains 2×12.5 μl of master mix, 1 μl of 10 μM of primers and 50 ng of the cDNA, to a total volume of 25 μl. The thermal cycling conditions included an initial denaturation step at 50° C. for 2 min, 95° C. for 3 min, 39 cycles at 95° C. for 30 s, annealing temperature at 62° C. for 30 s and extension at 72° C. for 30 s.
The gene specific threshold cycle (Ct) for each sample (ΔCt) was corrected by subtracting the Ct for the housekeeping gene β-actin. Untreated controls were chosen as the reference samples. The ΔCt for all experimental samples was subtracted by the ΔCt for the control samples (ΔΔCt).The difference in each gene specific threshold between the sample from vehicle treated and GA or CP treated cells was determined to obtain the relative change in the specific mRNA. The magnitude of change in the mRNA was expressed as 2^−ΔΔCt. Each measurement of a sample was performed in duplicates.

[4] = tested on: differentiated SK-N-SH neuroblastoma cells; assay: Cellular morphology and CTG viability in differentiated neuroblasts; conditions: 50 μM or 500 μM, 24 hours; for cell morphology: phase contrast
Description: Cell Titer-Glo (CTG) luminescent cell viability assay: Human neuroblastoma (SK-N-SH) cells cultured in minimal essential medium (MEM) supplemented with 1% fetal bovine serum (FBS) and 1% penicillin (100 U/ml)/streptomycin (100 μg/ml) were differentiated with 10 μM all-trans retinoic acid for 7 days. After resting for 24 hours in the low serum medium, the cells were seeded in 24 well (10^5 cells/well) culture plates in fresh medium and incubated with 50 μM or 500 μM of individual GA or control peptide for additional 24 hours. The cultures were then photographed using a phase contrast Leica microscope (Leica Microsystems Inc, Buffalogrove, Ill.). Subsequently, the cells were harvested, lysed with lysis buffer (M-PER, Pierce) and the lysate was assessed for metabolic activity using the luciferase based CTG assay (CTG, Promega, Madison, Wis.). Briefly, cell lysate (5 μL) in 25 μL of phosphate buffered saline was transferred to an opaque white 96-well plate, and then 30 μL of CTG assay solution was added. The relative luminescent signal (RLT) was quantified using a Glowmax luminometer (Promega).

[5] = target: T1, Recombinant human p65 protein (r-p65) (Homo sapiens, UniProt Q04206); assay: Plate binding ELISA of GA/PGA with r-p65 (KD by method of Friguet)
T1 construct: purchased Ori-Gene Technologies Inc., Rockville, Md; TP320780
T1 sequence (Q04206 whole entry): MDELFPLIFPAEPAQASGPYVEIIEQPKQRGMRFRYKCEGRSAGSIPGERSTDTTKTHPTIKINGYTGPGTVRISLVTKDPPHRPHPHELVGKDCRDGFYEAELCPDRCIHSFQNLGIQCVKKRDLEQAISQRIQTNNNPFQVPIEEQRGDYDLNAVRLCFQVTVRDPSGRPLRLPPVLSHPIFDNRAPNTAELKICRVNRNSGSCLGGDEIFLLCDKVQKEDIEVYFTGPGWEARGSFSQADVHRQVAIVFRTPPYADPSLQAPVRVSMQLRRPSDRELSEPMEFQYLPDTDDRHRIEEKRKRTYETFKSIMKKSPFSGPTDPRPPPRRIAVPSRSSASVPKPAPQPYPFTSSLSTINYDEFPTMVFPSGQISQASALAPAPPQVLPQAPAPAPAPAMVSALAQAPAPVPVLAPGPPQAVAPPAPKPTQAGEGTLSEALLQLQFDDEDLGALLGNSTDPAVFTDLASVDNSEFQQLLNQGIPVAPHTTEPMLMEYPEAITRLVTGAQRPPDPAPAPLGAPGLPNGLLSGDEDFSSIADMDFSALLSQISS
Description: We used similar method to determine direct binding kinetics of GA hexapeptides with human r-p65. […] Absorbance at 650 nm was measured with a mixing time of 30 s using BIORAD microplate reader. […] The dissociation constant of the interaction between the GA or the control peptide and r-p65 was determined by the method of Friguet et al., as described. A fraction of the bound r-p65 (x) and the ratio of bound r-p65 to the free GA or control peptide (y) was determined by the equations: x=(A0−A)/(A0), where A0 is the absorbance of r-p65anti-p65 complex in the absence of bound GA or control peptide and y=(A0−A)/(a0−i0)×(A0−A)/(A0), where a0 is the total concentration of GA or control peptide and i0 is the total concentration of r-p65.
Kinetics of PGA:-p65 interaction: The binding kinetics of top five PGA with full length human r-p65 was assessed as described. Plate bound GILZ-P or PGA at increasing concentrations was probed with r-p65-DDK (Ori-Gene Technologies Inc., Rockville, Md.) at constant concentration and detected with anti-DDK.

U373 cells [6] = type: cell-based, human; conditions: Example 9, PGA synthesized with TAT; read-out: IC50 of LDH release extrapolated from regression analysis
Description: Lactate dehydrogenase (LDH) assay: To detect direct GA-induced cell lysis we performed LDH release assays (Roche Molecular Diagnostics). […] Approximately 5×10^4 U373 cells/well were cultured in 96-well plates in the presence of increasing concentrations of individual GA or control peptide from 0.5 μM to 500 μM. Cells treated with 2% triton-X 100 (Sigma Aldrich, St. Louis, Mo.) for 10 minutes served as positive control. Untreated cells served as controls for spontaneous LDH-release. Specific LDH-release was calculated according to the following formula: LDH-release %=100*(GA or control peptide treated cells—untreated cells)/(positive control-untreated cells). The IC50 values were extrapolated by logarithmic estimation. The LD50 in mg/kg was predicted using the formula, Log (LD50)=0.506×(log IC50)+0.475.
Effects of PGA on membrane integrity and apoptosis: The top five PGA were covalently synthesized with the cell penetrating TAT (transcriptional transactivation) peptide to facilitate intracellular delivery (Genescript, N.J.). Membrane integrity of U373 microglial cells exposed to increasing concentration of each PGA from 0.5 μm to 500 μM was assessed by the leakage of intracellular lactate dehydrogenase (LDH) into culture medium (Roche, Ind.).

U373 cells [7] = assay: Annexin-V and propidium iodide apoptosis by flow cytometry; type: cell-based, human; conditions: score 1/0
Description: Detection apoptosis by flow cytometry: To further assess cell cytotoxicity, the apoptotic effects of individual GA or control peptide was evaluated by the Annexin-V and propidium iodide (PI) dual staining method (Annexin-V-Fluos staining kit, Roche Diagnostics, Mannheim, Germany). As opposed to apoptotic cells, necrotic cells with ruptured cell membrane take up PI, the DNA binding dye. Thus, cells which take up both fluorochromes are a mixture of apoptotic and necrotic cells, whereas cells that exclude PI but bind Annexin V are (early) apoptotic cells. U373 cells cultured with varying concentrations of individual GA or control peptide (0.5 μM to 50 μM) for 24 hours were centrifuged and suspended in 100 μl of Annexin V/PI labelling solution (20 μl each of Annexin-V-Fluos labelling reagent and PI in 1 ml of binding buffer) for 15 min at room temperature. After washing the cells were resuspended in PBS:1% paraformaldehyde and analyzed using a FACScan flow cytometer (BD Biosciences, San Jose, Calif.).

Aβ1-42 exposed HFB cells = assay: Cytokines in culture medium of Aβ1-42 exposed HFB; type: cell-based, human; conditions: PGA at IC50 concentration
[8] = dissociation constant, KD, method of Friguet et al.

Row | Substance | LD50 estimated from IC50 [1] [mg/kg] | viability of Aβ1-42 exposed HFB cells ([2]; 50 μM peptide, vs untreated Aβ1-42 exposed cultures) | relative expression of BCl2 in brain tissues [3] | relative expression of BclXL in brain tissues [3] | relative expression of CD14 mRNA in brain tissues [3] | cellular metabolic activity / viability (CTG assay) [4] | cell morphology [4] | Kd ([5]; KD (uM), score 1/0) [µM] | Kd [5, 8] [µM] | IC50 (U373 cells [6]) [µM] | % apoptosis at LD50 (U373 cells [7]) | LD50 (mM) [1] | tolerance of HFB cultures (ΔRLU, CTG) ([2]; PGA at IC50 concentration) | AIL-1p concentration in culture supernatant (not shown) (Aβ1-42 exposed HFB cells) | AIL-6 concentration in culture supernatant (Aβ1-42 exposed HFB cells) | tolerance of HFB cultures (Δ-RLU, CTG) ([2]; 50 μM peptide) | viability of Aβ1-42 exposed HFB cells ([2]; PGA at IC50 concentration, 24 hours)
1 | Ac-EPAPYQPEG-NH2 [CP-1] | 272.78 | not significant | 0.36+/−0.8 | 0.06+/−0.08 | 1+/−0.3 | did not adversely affect the differentiated neuroblastoma cells | no apparent adverse effects on morphology | – | – | – | – | – | – | – | – | – | –
2 | Ac-EPAPEQPDG-NH2 [PGA-5] | – | – | – | – | – | – | – | > 3 | 3.4 | 2 | 0 (>25) | 1 (>100) | significant toxicity | significantly lower | significantly lower | – | –
3 | Ac-APKPYQPRG-NH2 [CP-3] | 237.62 | – | 0.44+/−0.9 | 0.13+/−0.1 | 1.2+/−0.1 | reduced the viability of the cells at both concentrations tested | morphological changes consistent with cell death | – | – | – | – | – | – | – | – | significant toxicity | –
4 | Ac-APKPYQPRG-NH2 [PGA-1] | – | – | – | – | – | – | – | > 3 | 4.28 | 2.27 | 0 (>25) | 0 (<100) | significant toxicity | – | – | – | –
5 | Ac-EPAPYQPEG-NH2 [PGA-3] | – | – | – | – | – | – | – | > 3 | 3.27 | 0.98 | 1 (<25) | 1 (>100) | well tolerated | – | – | – | significantly higher
6 | Ac-EPAPEQPDG-NH2 [CP-2] | 237.52 | – | 0.45+/−0.9 | – | 2.4+/−2 | did not adversely affect the differentiated neuroblastoma cells | no apparent adverse effects on morphology | – | – | – | – | – | – | – | – | significant toxicity | –

— patent publication US11478526B2, “Methods of reducing neuroinflammation or toxicity induced by amyloid beta (abeta) using glucocorticoid induced leucine zipper (GILZ) analog peptides” (INDIANA UNIVERSITY RESEARCH AND TECHNOLOGY CORPORATION, priority 2016, dated 2022)
